In US20160000912A1, “COMBINATION THERAPY OF A TYPE II ANTI-CD20 ANTIBODY WITH A PROTEASOME INHIBITOR” (Roche Glycart AG, priority 2007, published 2016):

Experiments:
[1] = system: SU-DHL-4 human Non-Hodgkin-Lymphoma (NHL) cells; test: Tumor growth inhibition study in vivo, SU-DHL-4 xenografts; parameters: species or system SCID beige mice; settings: 1 mg/kg i.p. once weekly
Procedure: Type II anti-CD20 antibody B-HH6-B-KV1 GE(=humanized B-Ly1, glycoengineered B-HH6-B-KV1, see WO 2005/044859 and WO 2007/031875) was provided as stock solution (c=9.4 mg/ml) from GlycArt, Schlieren, Switzerland. Antibody buffer included histidine, trehalose and polysorbate 20. Antibody solution was diluted appropriately in PBS from stock for prior injections.
Proteasome inhibitor bortezomib was purchased as clinical formulation from Janssen-Cilag GmbH, Neuss, Germany. Dilution was adjusted from reconstituted stock solution.
SU-DHL-4 human Non-Hodgkin-Lymphoma (NHL) cells (Chang, H., et al., Leuk Lymphoma. 8 (1992) 129-36) were kindly provided from DSMZ, Braunschweig. Tumor cell line was routinely cultured in RPMI medium (PAA, Laboratories, Austria) supplemented with 10% fetal bovine serum (PAA Laboratories, Austria) and 2 mM L-glutamine, at 37° C. in a water-saturated atmosphere at 5% CO2. Passage 5 was used for transplantation. […]
Animals were controlled daily for clinical symptoms and detection of adverse effects. For monitoring throughout the experiment body weight of animals was documented two times weekly and tumor volume was measured by caliper after staging. […]

[2] = target: T1, CD20 on Raji cells (ATCC-No. CCL-86) (Homo sapiens, UniProt P11836); test: Ratio of the binding capacities to CD20 on Raji cells compared to rituximab (direct immunofluorescence, Cy5, FACSArray); settings: Cy5-conjugated antibodies
T1 construct: generated by direct immunofluorescence using the Burkitt's lymphoma cell line Raji (ATCC-No. CCL-86); host or cells: Raji cells (Burkitt's lymphoma)
T1 sequence (P11836 1-297): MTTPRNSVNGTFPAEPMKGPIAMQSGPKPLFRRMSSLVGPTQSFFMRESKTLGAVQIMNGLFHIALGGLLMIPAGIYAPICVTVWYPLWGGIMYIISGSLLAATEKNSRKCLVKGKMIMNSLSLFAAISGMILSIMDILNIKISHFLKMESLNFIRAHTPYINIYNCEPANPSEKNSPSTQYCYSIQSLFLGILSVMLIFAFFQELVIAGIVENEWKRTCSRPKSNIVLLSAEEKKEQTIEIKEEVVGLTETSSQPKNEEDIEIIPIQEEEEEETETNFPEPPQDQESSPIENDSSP
Procedure: MFI is the mean fluorescent intensity. The “Cy5-labeling ratio” as used herein means the number of Cy5-label molecules per molecule antibody.
Raji cells (ATCC-No. CCL-86) were maintained in culture in RPMI-1640 medium (PanBiotech GmbH, Cat.-No. PO4-18500) containing 10% FCS (Gibco, Cat.-No.10500-064). […] 5*10^5 cells per sample were stained for 30 min at 4° C. Afterwards, cells were washed in culture medium. Propidium iodide (PI) staining was used to exclude dead cells.
Then the ratio of the binding capacities to CD20 on Raji cells (ATCC-No. CCL-86) is calculated according to the following formula: […]

Compound	antitumor activity as single agent (in words) [1]	binding capacity compared to rituximab (in words) [2]
CC(C)C[C@H](NC(=O)[C@H](Cc1ccccc1)NC(=O)c1cnccn1)B(O)O [bortezomib]	only slightly active	
B-HH6-B-KV1: Type II anti-CD20 antibody (humanized B-Ly1 antibody) of Example 2; FIG. 2 legend calls it B-HH6-B-KV1 GE		reduces binding capacity compared to rituximab
